Experimental data as given in US20250368628A1, “METHODS AND COMPOUNDS FOR MODULATING INHERITED GENETIC DISEASES” (Design Therapeutics, Inc., priority 2022, published 2025).

What follows are molecules tested on Myotonic Dystrophy 1 affected patient fibroblasts (Coriel GM04602; 1600 CTG repeats) (assay: DM1 foci reduction assay (EC50 assay; CAG10-Cy3 FISH, foci per nucleus)). Details: Homo sapiens, Fibroblast; DM1 patient fibroblasts, 48 h treatment, foci per nucleus; read-out: DM1 EC50, 48 h.
Type: cell-based
In short: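 Foci per nucleus counted by 20× imaging of 4 areas per well, after overnight FISH with 5 nM CAG10-Cy3 and DAPI staining of fixed, permeabilized cells. DM1 fibroblasts (GM04602, 1600 CTG) were dosed 48 h at 37 °C, 8 points, 3-fold dilutions, 3 μM top concentration.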

SMILES	EC50 [nM]
Cn1cc(NC(=O)c2nc(NC(=O)CCNC(=O)c3cc(NC(=O)c4nccn4C)cn3C)cn2C)cc1C(=O)NCCCC(=O)Nc1cn(C)c(C(=O)NCCC(=O)Nc2cc(C(=O)Nc3cn(C)c(C(=O)NCCC(=O)NC4CCNCC4)n3)n(C)c2)n1 [Compound B-140]	> 1000
Cn1cnc(NC(=O)c2cc(NC(=O)CCNC(=O)c3nc(NC(=O)CCCNC(=O)c4cc(NC(=O)c5nc(NC(=O)CCNC(=O)c6cc(NC(=O)c7nccn7C)cn6C)cn5C)cn4C)cn3C)cn2C)c1 [Compound B-243]	> 1000
CCN(CC)CCCC[C@H](NC(=O)c1ccccc1)C(=O)NCCOCCOCCOCCOCCOCCNC(=O)CCNC(=O)c1nc(NC(=O)c2cc(NC(=O)CCNC(=O)c3nc(NC(=O)CCCNC(=O)c4cc(NC(=O)c5nc(NC(=O)CCNC(=O)c6cc(NC(=O)c7nccn7C)cn6C)cn5C)cn4C)cn3C)cn2C)cn1C [Compound B-91]	500 to 1000
CCN(CC)CCCC[C@H](NC(=O)c1cccc(C(=O)OC(C)(C)C)c1)C(=O)NCCOCCOCCOCCOCCOCCNC(=O)c1nc(NC(=O)c2cc(NC(=O)CCNC(=O)c3nc(NC(=O)CCCNC(=O)c4cc(NC(=O)c5nc(NC(=O)CCNC(=O)c6cc(NC(=O)c7nccn7C)cn6C)cn5C)cn4C)cn3C)cn2C)cn1C [Compound B-344]	500 to 1000
CN(CCCCCc1cccc(C(=O)O)c1)CCCNC(=O)c1nc(NC(=O)c2cc(NC(=O)CCNC(=O)c3nc(NC(=O)CCCNC(=O)c4cc(NC(=O)c5nc(NC(=O)CCNC(=O)c6cc(NC(=O)c7nccn7C)cn6C)cn5C)cn4C)cn3C)cn2C)cn1C [Compound B-215]	100 to 500
CCCNC(=O)c1nc(NC(=O)c2cc(NC(=O)CCNC(=O)c3nc(NC(=O)CCCNC(=O)c4cc(NC(=O)c5nc(NC(=O)CCNC(=O)c6cc(NC(=O)c7nccn7C)cn6C)cn5C)cn4CCCCCCN=[N+]=[N-])cn3C)cn2C)cn1C [Compound B-231]	100 to 500
Cn1cc(NC(=O)c2nc(NC(=O)CCNC(=O)c3cc(NC(=O)c4nccn4C)cn3C)cn2C)cc1C(=O)NCCCC(=O)Nc1cn(C)c(C(=O)NCCC(=O)Nc2cc(C(=O)Nc3cn(C)c(C(=O)NCCC(=O)NCCCN=C(N)N)n3)n(C)c2)n1 [Compound B-34]	500 to 1000
Cn1cc(NC(=O)c2nc(NC(=O)CCNC(=O)c3cc(NC(=O)c4nccn4C)cn3C)cn2C)cc1C(=O)NCCCC(=O)Nc1cn(C)c(C(=O)NCCC(=O)Nc2cc(C(=O)Nc3cn(C)c(C(=O)NCCC(=O)N4CCC(C#CC5(O)CCN(C(=O)OCC6c7ccccc7-c7ccccc76)CC5)CC4)n3)n(C)c2)n1 [Compound B-197]	500 to 1000
Cn1cc(NC(=O)c2nc(NC(=O)CCNC(=O)c3cc(NC(=O)c4nccn4C)cn3C)cn2C)cc1C(=O)NCCCC(=O)Nc1cn(C)c(C(=O)NCCC(=O)Nc2cc(C(=O)Nc3cn(C)c(C(=O)NCCC(=O)N4CCC(C#CC5(O)CCNCC5)CC4)n3)n(C)c2)n1 [Compound B-198]	500 to 1000
CCCNC(=O)CCNC(=O)c1nc(NC(=O)c2cc(NC(=O)CCNC(=O)c3nc(NC(=O)CCCNC(=O)c4cc(NC(=O)c5nc(NC(=O)CCNC(=O)c6cc(NC(=O)c7nccn7C)cn6CCCCCCN=[N+]=[N-])cn5C)cn4C)cn3C)cn2C)cn1C [Compound B-60]	100 to 500
CC(C)CCCN1CCC(C#CC#CCNC(=O)CCNC(=O)c2nc(NC(=O)c3cc(NC(=O)CCNC(=O)c4nc(NC(=O)CCCNC(=O)c5cc(NC(=O)c6nc(NC(=O)CCNC(=O)c7cc(NC(=O)c8nccn8C)cn7C)cn6C)cn5C)cn4C)cn3C)cn2C)CC1 [Compound B-191]	100 to 500
Cn1cc(NC(=O)c2nc(NC(=O)CCNC(=O)c3cc(NC(=O)c4nccn4C)cn3C)cn2C)cc1C(=O)NCCCC(=O)Nc1cn(C)c(C(=O)NCCC(=O)Nc2cc(C(=O)Nc3cn(C)c(C(=O)NCCC(=O)N4CCN(C5CCN(c6ccc([N+](=O)[O-])cc6)CC5)CC4)n3)n(C)c2)n1 [Compound B-29, 1-Methyl-4-{1-methyl-4-[3-({1-methyl-4-[4-({1-methyl-4-[1-methyl-4-(3-{[1-methyl-4-(1-methylimidazole-2-amido)pyrrol-2-yl]formamido}propanamido)imidazole-2-amido]pyrrol-2-yl}formamido)butanamido]imidazol-2-yl}formamido)propanamido]pyrrole-2-amido}-N-(3-{4-[1-(4-nitrophenyl)piperidin-4-yl]piperazin-1-yl}-3-oxopropyl)imidazole-2-carboxamide]	> 1000
CCN(CC)CCCC[C@H](NC(=O)c1cccc(C(=O)OC(C)(C)C)c1)C(=O)NCCOCCOCCOCCNC(=O)CCNC(=O)c1nc(NC(=O)c2cc(NC(=O)CCNC(=O)c3nc(NC(=O)CCCNC(=O)c4cc(NC(=O)c5nc(NC(=O)CCNC(=O)c6cc(NC(=O)c7nccn7C)cn6C)cn5C)cn4C)cn3C)cn2C)cn1C [Compound B-355]	100 to 500
Cn1cc(NC(=O)c2nc(NC(=O)CCNC(=O)c3cc(NC(=O)c4nccn4C)cn3C)cn2C)cc1C(=O)NCCCC(=O)Nc1cn(C)c(C(=O)NCCC(=O)Nc2cc(C(=O)Nc3cn(C)c(C(=O)NCCC(=O)N[C@H]4CC[C@H](O)CC4)n3)n(C)c2)n1 [Compound B-54]	100 to 500
CC(=O)NCCCCCCn1cc(NC(=O)c2nc(NC(=O)CCNC(=O)c3cc(NC(=O)c4nccn4C)cn3C)cn2C)cc1C(=O)NCCCC(=O)Nc1cn(C)c(C(=O)NCCC(=O)Nc2cc(C(=O)Nc3cn(C)c(C(=O)NCCC(=O)N4CCC(C#CC#CC5CCNCC5)CC4)n3)n(C)c2)n1 [Compound B-294]	< 100
Cn1cc(NC(=O)c2nc(NC(=O)CCNC(=O)c3cc(NC(=O)c4nccn4C)cn3C)cn2C)cc1C(=O)NCCCC(=O)Nc1cn(C)c(C(=O)NCCC(=O)Nc2cc(C(=O)Nc3cn(C)c(C(=O)NCCC(=O)NCCNc4ccc(C(C)(C)C)cc4)n3)n(C)c2)n1 [Compound B-181]	> 1000
Cn1cc(NC(=O)c2nc(NC(=O)CCNC(=O)c3cc(NC(=O)c4nccn4C)cn3C)cn2C)cc1C(=O)NCCCC(=O)Nc1cn(C)c(C(=O)NCCC(=O)Nc2cc(C(=O)Nc3cn(C)c(C(=O)NCCC(=O)N4CCC(O)(C#CC5CCN(C(=O)OC(C)(C)C)CC5)CC4)n3)n(C)c2)n1 [Compound B-195]	> 1000
CCN(CC)CCCC[C@H](NC(=O)c1cccc(C(=O)O)c1)C(=O)NCCOCCOCCOCCOCCOCCNC(=O)CCNC(=O)c1nc(NC(=O)c2cc(NC(=O)CCNC(=O)c3nc(NC(=O)CCCNC(=O)c4cc(NC(=O)c5nc(NC(=O)CCNC(=O)c6cc(NC(=O)c7nccn7C)cn6C)cn5C)cn4C)cn3C)cn2C)cn1C [Compound B-222]	500 to 1000
Cn1cc(NC(=O)c2nc(NC(=O)CCNC(=O)c3cc(NC(=O)c4nccn4C)cn3C)cn2C)cc1C(=O)NCCCC(=O)Nc1cn(C)c(C(=O)NCCC(=O)Nc2cc(C(=O)Nc3cn(C)c(C(=O)NCCC(=O)NCC#CC#CC4CCNCC4)n3)n(C)c2)n1 [Compound B-137, 1-methyl-4-(3-{[1-methyl-4-(1-methylimidazole-2-amido)pyrrol-2-yl]formamido}propanamido)-N-(1-methyl-5-{[3-({1-methyl-2-[(2-{[1-methyl-5-({1-methyl-2-[(2-{[5-(piperidin-4-yl)penta-2,4-diyn-1-yl]carbamoyl}ethyl)carbamoyl]imidazol-4-yl}carbamoyl)pyrrol-3-yl]carbamoyl}ethyl)carbamoyl]imidazol-4-yl}carbamoyl)propyl]carbamoyl}pyrrol-3-yl)imidazole-2-carboxamide]	> 1000
CC(C)CCC(=O)N1CCC(C#CC#CC2CCN(CCCCCNC(=O)CCNC(=O)c3nc(NC(=O)c4cc(NC(=O)CCNC(=O)c5nc(NC(=O)CCCNC(=O)c6cc(NC(=O)c7nc(NC(=O)CCNC(=O)c8cc(NC(=O)c9nccn9C)cn8C)cn7C)cn6C)cn5C)cn4C)cn3C)CC2)CC1 [Compound B-184]	> 1000
CCCNC(=O)CCNC(=O)c1nc(NC(=O)c2cc(NC(=O)CCNC(=O)c3nc(NC(=O)CCCNC(=O)c4cc(NC(=O)c5nc(NC(=O)CCNC(=O)c6cc(NC(=O)c7nccn7C)cn6C)cn5C)cn4CCCCCCNC(C)=O)cn3C)cn2C)cn1C [Compound B-292]	< 100
COC(=O)c1cccc(OCCOCCOCCNC(=O)c2nc(NC(=O)c3cc(NC(=O)CCNC(=O)c4nc(NC(=O)CCCNC(=O)c5cc(NC(=O)c6nc(NC(=O)CCNC(=O)c7cc(NC(=O)c8nccn8C)cn7C)cn6C)cn5C)cn4C)cn3C)cn2C)c1 [Compound B-339]	500 to 1000
Cn1cc(NC(=O)c2nc(NC(=O)CCNC(=O)c3cc(NC(=O)c4nccn4C)cn3C)cn2C)cc1C(=O)NCCCC(=O)Nc1cn(C)c(C(=O)NCCC(=O)Nc2cc(C(=O)Nc3cn(C)c(C(=O)NCCC(=O)NCCCCCN4CCC(C#CC#CC5CCN(Cc6ccc(C(C)(C)C)cc6)CC5)CC4)n3)n(C)c2)n1 [Compound B-178]	> 1000
CCN(CC)CCCC[C@H](NC(=O)C(C)C)C(=O)NCCOCCOCCOCCOCCOCCNC(=O)CCNC(=O)c1nc(NC(=O)c2cc(NC(=O)CCNC(=O)c3nc(NC(=O)CCCNC(=O)c4cc(NC(=O)c5nc(NC(=O)CCNC(=O)c6cc(NC(=O)c7nccn7C)cn6C)cn5C)cn4C)cn3C)cn2C)cn1C [Compound B-89]	> 1000
CCCCCNC(=O)CCNC(=O)c1nc(NC(=O)c2cc(NC(=O)CCNC(=O)c3nc(NC(=O)CCCNC(=O)c4cc(NC(=O)c5nc(NC(=O)CCNC(=O)c6cc(NC(=O)c7nccn7C)cn6C)cn5C)cn4CCCCC(=O)N(CCOCCOCCOCCOC)CCOCCOCCOCCOC)cn3C)cn2C)cn1C [Compound B-261]	100 to 500
CCCNC(=O)CCNC(=O)c1nc(NC(=O)c2cc(NC(=O)CCNC(=O)c3nc(NC(=O)CCCNC(=O)c4cc(NC(=O)c5nc(NC(=O)CCNC(=O)c6cc(NC(=O)c7nccn7C)cn6CCCCCCN)cn5C)cn4C)cn3C)cn2C)cn1C [Compound B-61]	> 1000
CN1CCC(NC(=O)CCNC(=O)c2nc(NC(=O)c3cc(NC(=O)CCNC(=O)c4nc(NC(=O)CCCNC(=O)c5cc(NC(=O)c6nc(NC(=O)CCNC(=O)c7cc(NC(=O)c8nccn8C)cn7C)cn6C)cn5C)cn4C)cn3C)cn2C)CC1 [Compound B-55]	100 to 500

Same assay, conditions: Homo sapiens, Fibroblast; DM1 patient fibroblasts, foci per nucleus, 48 h treatment; read-out: DM1 EC50, 48 h

SMILES	EC50 [nM]
CCCNC(=O)c1nc(NC(=O)c2cc(NC(=O)CCNC(=O)c3nc(NC(=O)CC4(CNC(=O)c5cc(NC(=O)c6nc(NC(=O)CCNC(=O)c7cc(NC(=O)c8nccn8CC(F)(F)F)cn7C)cn6C)cn5C)CNC4)cn3C)cn2C)cn1C [Compound B-440]	100 to 500
